Reference: US10000454B2, “Antidiabetic tricyclic compounds” (Merck Sharp & Dohme Corp., priority 2014, dated 2018)

Legend:
[1] = target: T1, Human GPR40 (Homo sapiens, UniProt O14842); test: Inositol Phosphate Turnover (IP1) Assay; type: cell-based; design: expressed in transfected cells; host or cells: HEK cells (stably expressing the aequorin reporter); details: HEK cells stably expressing human GPR40, CisBio IP-One kit
Description: (§1) Human and mouse GPR40 stable cell-lines were generated in CHO cells stably expressing NFAT BLA (Beta-lactamase). A human GPR40 stable cell-line was generated in HER cells stably expressing the aequorin expressing reporter. The expression plasmids were transfected using lipofectamine (Life Technologies) following manufacturer's instructions. Stable cell-lines were generated following drug selection.
The assay is performed in 384-well format. HEK cells stably expressing human GPR40 are plated at 15,000 cells per well in growth medium (DMEM/10% fetal calf serum). Cell plates are then incubated 16 hours at 37 degrees in a 5% CO2 incubator.
Measurement of Inositol Phosphate Turnover (IP1) is performed using the CisBio IP-One kit (Part number 62IPAPEB). After the 16 hour incubation, the cells are washed with HEPES buffer and 10 ul of stimulation buffer (prepared as described in the kit) is added to each well. In a separate plate, compounds are diluted in DMSO (400-fold over the final concentration in the assay well) and 25 nl is acoustically transferred to the appropriate well in the assay cell plate. The plates are then incubated for 60 minutes at 37 degrees. 10 ul of detection buffer (also prepared as described in the IP-One kit) is added to each well and the plates are incubated for 60 minutes in the dark. The plates are then read in a Perkin Elmer EnVision or equivalent reader able to measure FRET. Fluorescent ratio of emission at 665 and 620 nm is then converted to IP1 concentration by back calculating from an IP1 standard curve prepared at the time of the assay.

[2] = target: T1, Human GPR40; test: FLIPR assay, agonist-induced calcium mobilization; type: cell-based; design: expressed in transfected cells; details: GPR40/CHO NFAT BLA cells
Description: as §1
FLIPR (Fluorimetric Imaging Plate Reader, Molecular Devices) assays were performed to measure agonist-induced calcium mobilization of the stable clones. For the FLIPR assay, one day before assay, GPR40/CHO NFAT BLA cells were seeded into black-wall-clear-bottom 384-well plates (Costar) at 1.4×10e4 cells/20 μL medium/well. The cells were incubated with 20 μl/well of the assay buffer (HMS, 0.1% BSA, 20 mM HEPES, 2.5 mM probenecid, pH 7.4) containing 8 μM fluo-4, AM, 0.08% pluronic acid at room temperature for 100 minutes. Fluorescence output was measured using FLIPR. Compounds were dissolved in DMSO and diluted to desired concentrations with assay buffer. 13.3 μL/well of compound solution was added.

T1 sequence (O14842 whole entry): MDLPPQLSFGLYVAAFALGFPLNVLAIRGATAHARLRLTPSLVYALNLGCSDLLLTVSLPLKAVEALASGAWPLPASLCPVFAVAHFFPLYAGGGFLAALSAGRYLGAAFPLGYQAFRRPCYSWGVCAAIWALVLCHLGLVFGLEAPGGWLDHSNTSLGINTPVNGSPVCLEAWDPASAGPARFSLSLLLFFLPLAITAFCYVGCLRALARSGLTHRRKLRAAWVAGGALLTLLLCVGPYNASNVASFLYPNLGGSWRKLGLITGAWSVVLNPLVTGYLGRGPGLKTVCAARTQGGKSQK

Row | SMILES | EC50 [1] | EC50 [2]
1 | COc1ncccc1C1CCC(C)(C)c2cc(F)c(COc3cc4c(cn3)[C@H]3[C@@H](C4)[C@@H]3C(=O)O)cc21 (stereo partly drawn) [Example 27, (5aR,6S,6aS)-3-((3-fluoro-8-(2-methoxypyridin-3-yl)-5,5-dimethyl-5,6,7,8-tetrahydronaphthalen-2-yl)methoxy)-5,5a,6,6a-tetrahydrocyclopropa [4,5]cyclopenta[1,2-c]pyridine-6-carboxylic acid] | 15.6 nM | 7.22 nM
2 | CC1(C)CC(c2ccc(OCCCS(C)(=O)=O)cc2C(F)(F)F)c2cc(COc3cc4c(cn3)[C@H]3[C@@H](C4)[C@@H]3C(=O)O)c(F)cc21 (stereo partly drawn) [Example 28, (6S)-3-((6-fluoro-1,1-dimethyl-3-(4-(3-(methylsulfonyl)propoxy)-2-(trifluoromethyl)phenyl)-2,3-dihydro-1H-inden-5-yl)methoxy)-5,5a,6,6a-tetrahydrocyclopropa[4,5]cyclopenta[1,2-c]pyridine-6-carboxylic acid] | 41.2 nM | 6.9 nM
3 | Cc1nc(OCCC(C)(C)O)ccc1C1CCCc2ccc(COc3cc4c(cn3)[C@H]3[C@@H](C4)[C@@H]3C(=O)O)cc21 (stereo partly drawn) [Example 30, (5aR,6S,6aS)-3-((8-(6-(3-hydroxy-3-methylbutoxy)-2-methylpyridin-3-yl)-5,6,7,8-tetrahydronaphthalen-2-yl)methoxy)-5,5a,6,6a-tetrahydrocyclopropa[4,5] cyclopenta[1,2-c]pyridine-6-carboxylic acid] | 35 nM | 33 nM
4 | C=C(C)CCOc1ccc(C2CCCc3ccc(COc4cc5c(cn4)[C@H]4[C@@H](C5)[C@@H]4C(=O)O)cc32)c(C)n1 (stereo partly drawn) [Example 31, (5aR,6S,6aS)-3-((8-(2-methyl-6-((3-methylbut-3-en-1-yl)oxy)pyridin-3-yl)-5,6,7,8-tetrahydronaphthalen-2-yl)methoxy)-5,5a,6,6a-tetrahydrocyclopropa[4,5] cyclopenta[1,2-c]pyridine-6-carboxylic acid] | 214 nM | 51.9 nM
5 | CC1(C)CN(c2ccccc2C(F)(F)F)c2cc(COc3cc4c(cn3)[C@H]3[C@@H](C4)[C@@H]3C(=O)O)c(F)cc21 [Example 32, (5aR,6S,6aS)-3-((5-fluoro-3,3-dimethyl-1-(2-(trifluoromethyl)phenyl)indolin-6-yl)methoxy)-5,5a,6,6a-tetrahydrocyclopropa[4,5]cyclopenta[1,2-c]pyridine-6-carboxylic acid] | 9.96 nM | 8.94 nM
6 | O=C(O)[C@H]1[C@@H]2Cc3cc(OCc4ccc5c(c4)N(c4ccccc4C(F)(F)F)CC5)ncc3[C@@H]21 [Example 33] | 26.2 nM | 15.3 nM
7 | O=C(O)[C@H]1[C@@H]2Cc3cc(OCc4ccc5ccn(-c6ccccc6C(F)(F)F)c5c4)ncc3[C@@H]21 [Example 34, (5aR,6S,6aS)-3-((1-(2-(trifluoromethyl)phenyl)-1H-indol-6-yl)methoxy)-5,5a,6,6a-tetrahydrocyclo-propa[4,5]cyclopenta[1,2-c]pyridine-6-carboxylic acid] | 23.2 nM | 33.9 nM
8 | O=C(O)[C@H]1[C@@H]2Cc3cc(OCc4ccc5c(c4)N(c4ccccc4)CC5)ncc3[C@@H]21 [Example 35, (5aR,6S,6aS)-3-((1-(2-phenyl)indolin-6-yl)methoxy)-5,5a,6,6a-tetrahydrocyclopropa[4,5] cyclopenta[1,2-c]pyridine-6-carboxylicacid] | 168 nM | 53.4 nM
9 | O=C(O)[C@H]1[C@@H]2Cc3cc(OCc4ccc5c(Br)cn(-c6ccccc6C(F)(F)F)c5c4)ncc3[C@@H]21 [Example 36, (5aR,6S,6aS)-3-({3-bromo-1-[2-(trifluoromethyl)phenyl]-1H-indol-6-yl}methoxy)-5,5a,6,6a-tetrahydrocyclopropa[4,5] cyclopenta[1,2-c]pyridine-6-carboxylic acid] | 47.6 nM | 26.9 nM
10 | O=C(O)[C@H]1[C@@H]2Cc3cc(OCc4ccc5c(C6CC6)cn(-c6ccccc6C(F)(F)F)c5c4)ncc3[C@@H]21 [Example 37, (5aR,6S,6aS)-3-({3-cyclopropyl-1-[2-(trifluoromethyl)phenyl]-1H-indol-6-yl}methoxy)-5,5a,6,6a-tetrahydrocyclopropa[4,5] cyclopenta[1,2-c]pyridine-6-carboxylic acid] | 91.5 nM | 42.5 nM
11 | CN1C(c2ccccc2C(F)(F)F)c2cc(COc3cc4c(cn3)[C@H]3[C@@H](C4)[C@@H]3C(=O)O)ccc2C1(C)C (stereo partly drawn) [Example 38, (5aR,6S,6aS)-3-((1,1,2-trimethyl-3-(2-(trifluoromethyl)phenyl)isoindolin-5-yl)methoxy)-5,5a,6,6a-tetrahydrocyclopropa[4,5]cyclopenta[1,2-c]pyridine-6-carboxylic acid] | 11.9 nM | 5.35 nM
12 | CC1(C)NC(c2ccccc2C(F)(F)F)c2cc(COc3cc4c(cn3)[C@H]3[C@@H](C4)[C@@H]3C(=O)O)ccc21 (stereo partly drawn) [Example 39, (5aR,6S,6aS)-3-((1,1-dimethyl-3-(2-(trifluoromethyl)phenyl)isoindolin-5-yl)methoxy)-5,5a,6,6a-tetrahydrocyclopropa[4,5]cyclopenta[1,2-c]pyridine-6-carboxylic acid] | 15.4 nM | 13.9 nM
13 | CC1(c2ccccc2C(F)(F)F)OCc2ccc(COc3cc4c(cn3)[C@H]3[C@@H](C4)[C@@H]3C(=O)O)cc21 (stereo partly shown) [Example 40] | 431 nM | 16.7 nM
14 | Cc1c(COc2cc3c(cn2)[C@H]2[C@@H](C3)[C@@H]2C(=O)O)ccc2c1C(c1ccccc1C(F)(F)F)CCC2 (stereo partly drawn) [Example 43, (5aR,6S,6aS)-3-((1-methyl-8-(2-(trifluoro-methyl)phenyl)-5,6,7,8-tetrahydro-naphthalen-2-yl)methoxy)-5,5a,6,6a-tetrahydrocyclopropa[4,5] cyclopenta[1,2-c]pyridine-6-carboxylic acid] | 70.8 nM | 38.8 nM
15 | O=C(O)[C@H]1[C@@H]2Cc3cc(OCc4cc5c(cc4F)CCCC5c4ccccc4C(F)(F)F)ncc3[C@@H]21 (stereo partly drawn) [Example 44, (5aR,6S,6aS)-3-((3-fluoro-8-(2-(trifluoro-methyl)phenyl)-5,6,7,8-tetrahydronaphthalen-2-yl)methoxy)-5,5a,6,6a-tetrahydrocyclopropa[4,5] cyclopenta[1,2-c]pyridine-6-carboxylic acid] | 68 nM | 21 nM
16 | CC1CCc2ccc(COc3cc4c(cn3)[C@H]3[C@@H](C4)[C@@H]3C(=O)O)cc2C1c1ccccc1C(F)(F)F (stereo partly drawn) [Example 46, (5aR,6S,6aS)-3-((7-methyl-8-(2-(trifluoromethyl)phenyl)-5,6,7,8-tetrahydronaphthalen-2-yl)methoxy)-5,5a,6,6a-tetrahydrocyclopropa[4,5]cyclopenta[1,2-c]pyridine-6-carboxylic acid] | 79.6 nM | 8.74 nM
17 | CC1=C(c2ccccc2C(F)(F)F)c2cc(COc3cc4c(cn3)[C@H]3[C@@H](C4)[C@@H]3C(=O)O)ccc2CC1 [Example 47, (5aR,6S,6aS)-3-((7-methyl-8-(2-(trifluoromethyl)-phenyl)-5,6-dihydro-naphthalen-2-yl)methoxy)-5,5a,6,6a-tetrahydrocyclo-propa[4,5]cyclopenta[1,2-c]pyridine-6-carboxylic acid] | 236 nM | 11.4 nM
18 | O=C(O)[C@H]1[C@@H]2Cc3cc(OCc4ccc5c(c4)C(c4ccccc4C(F)(F)F)CCO5)ncc3[C@@H]21 (stereo partly drawn) [Example 48, (5aR,6S,6aS)-3-((4-(2-(trifluoromethyl)phenyl)chroman-6-yl)methoxy)-5,5a,6,6a-tetrahydrocyclopropa[4,5]cyclopenta[1,2-c]pyridine-6-carboxylic acid] | 36.2 nM | 77.8 nM
19 | O=C(O)[C@H]1[C@@H]2Cc3cc(OCc4ccc5c(c4)C(c4ccccc4C(F)(F)F)OCC5)ncc3[C@@H]21 (stereo partly drawn) [Example 50, (5aR,6S,6aS)-3-((1-(2-(trifluoromethyl)phenyl)isochroman-7-yl)methoxy)-5,5a,6,6a-tetrahydrocyclopropa[4,5]cyclopenta[1,2-c]pyridine-6-carboxylic acid] | 15 nM | 43.2 nM
20 | CC1(C)CCN(c2ccccc2C(F)(F)F)c2cc(COc3cc4c(cn3)[C@H]3[C@@H](C4)[C@@H]3C(=O)O)c(F)cc21 [Example 53, (5aR,6S,6aS)-3-((6-fluoro-4,4-dimethyl-1-(2-(trifluoromethyl)phenyl)-1,2,3,4-tetrahydroquinolin-7-yl)methoxy)-5,5a,6,6a-tetrahydrocyclopropa[4,5]cyclopenta[1,2-c]pyridine-6-carboxylic acid] | 39.2 nM | 8.38 nM
